Holding throughout (experiment): DTP human tumour cell line panel, 48 h
The subject of assay [1] is SK-OV-3 ovarian.
Assay [2] deals with OVCAR-4 ovarian.
For assay [3], the system named is HL-60(TB) leukemia.
The test system of assay [4] is SN12C renal.
Assay [5] relates to SK-MEL-5 melanoma.
In assay [6] the test system is CAKI-1 renal.
The test system of assay [7] is SR leukemia.
Assay [8] concerns EKVX NSCLC.
Assay [9] concerns HOP-92 NSCLC.
In assay [10] the test system is DU-145 prostate.

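Protocol summary: plate cells (96-well), add compound at 5 concentrations, incubate 48 h, interpolate endpoints linearly. GI50 is the concentration that inhibits growth by half. TGI marks complete inhibition of growth.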 Some results are limits rather than exact numbers.

Usually GI50 stands for the concentration at which growth is held to half of that of the control. Usually TGI stands for the concentration giving total growth inhibition. Read a low TGI as greater sensitivity of the cells.

On to `Cc1ccsc1-c1ccc2c(c1)COC2(CCCN(C)C)c1ccc(F)cc1` (stereo not given), for which the GI50 in [1] is 8.16 µM; in [2], 3.27 µM; in assay [3], 1.93 µM; in assay [4], 3.59 µM; in [5] it was 1.78 µM; in assay [6], 2.19 µM. Further, the GI50 in assay [7] was 2.29 µM; in assay [8], 4.64 µM; in [9], 1.76 µM; in assay [10] it was 3.17 µM. For the same compound, the TGI worked out at 21.9 µM in [1]; 13 µM in assay [2]; 4.59 µM in [3]; 15.5 µM in assay [4]; 3.2 µM in assay [5]; 6.05 µM in [6]. The TGI in assay [7] came to 7.3 µM; in assay [8] it was 18.5 µM; in assay [9], 7.44 µM; in assay [10] it was 10.8 µM.
Take `CC/C=C\C[C@H](O)C/C=C1/C(=O)C=C[C@@H]1C/C=C\CCCCO`: the GI50 is 5.08 µM in [1]; 3.55 µM in assay [2]; 2.29 µM in assay [3]; 2.52 µM in assay [4]; 1.88 µM in assay [5]; 3.14 µM in assay [6]. In addition, the GI50 was 1.97 µM in [7], 4.22 µM in [8], 11.7 µM in [9] and 4 µM in [10]. Besides, the TGI in assay [1] stood at 29.2 µM; in assay [2], 18.7 µM; in assay [3], 6.88 µM; in assay [4], 6.53 µM; in assay [5] it was 3.78 µM; in [6], 12.8 µM. Further, the TGI is 16.2 µM in assay [7], 18 µM in [8], 25 µM in assay [9] and 15.2 µM in assay [10].
For `O=C1CC(N2C(=O)/C(=C/C(Cl)=C\c3ccc([N+](=O)[O-])cc3)SC2=S)C(=O)N1c1ccc(O)cc1` (stereo not given), the GI50 in assay [1] is 2.99 µM; in assay [2], 5.13 µM; in [3], 2.44 µM; in assay [4], 1.6 µM; in assay [5], 1.92 µM; in assay [6], 1.15 µM. Moreover, the GI50 in assay [7] is 0.394 µM; in assay [8] it was 3.25 µM; in assay [9], 1.62 µM; in [10], 1.72 µM. Besides, the TGI in assay [1] amounted to 9.26 µM; in [2], 17.3 µM; in assay [3], 9.57 µM; in assay [4], 5.88 µM; in [5], 3.66 µM; in assay [6], 2.42 µM. For the same compound, the TGI stood at 4.97 µM in assay [7], 11.7 µM in [8], 3.72 µM in assay [9] and 3.37 µM in assay [10].
Consider `CC(C)Cc1ccc(C(C)C(=O)NCc2ccc(Cn3c(=O)sn(CCCI)c3=O)cc2)cc1` (stereo not given), for which the GI50 in [1] is 2.88 µM; in [2] it was 0.736 µM; in assay [3] it was 0.775 µM; in [4], 0.646 µM; in assay [5], 1.46 µM; in [6], 0.404 µM. The GI50 in [7] was 0.364 µM; in assay [8], 1.46 µM; in assay [9], 0.308 µM; in [10], 0.861 µM. Also, the TGI in assay [1] is 8.23 µM; in assay [2], 2.12 µM; in assay [3], greater than 22.7 µM; in assay [4] it was 1.97 µM; in [5], 2.78 µM; in assay [6], 1.61 µM. The TGI in assay [7] is greater than 100 µM; in [8], 2.92 µM; in assay [9], 1.56 µM; in assay [10], 2.12 µM.
Take `CN(C)C=Nc1c(I)cc(I)c(CCC(=O)O)c1I`: the GI50 in assay [1] was greater than 100 µM; in [2] it was greater than 100 µM; in assay [3], 82.9 µM; in [4], greater than 100 µM; in assay [5] it was greater than 100 µM; in [6], greater than 100 µM. For the same compound, the GI50 in assay [7] is greater than 100 µM; in assay [8], greater than 100 µM; in assay [9] it was 45.4 µM; in assay [10], greater than 100 µM. Also, the TGI in assay [1], in [2], in assay [3], in assay [4], in [5] and in assay [6] was greater than 100 µM in each case. Also, the TGI in assay [7], in [8], in assay [9] and in [10] was greater than 100 µM throughout.
Turning to `COc1ccc(-c2cn(-c3cc(OC)c(OC)c(OC)c3)c(=O)[nH]2)cc1OC`, the GI50 in assay [1], in [2], in assay [3], in [4], in [5] and in [6] was greater than 100 µM each time. The GI50 in assay [7], in [8], in assay [9] and in [10] was greater than 100 µM throughout. The TGI in assay [1], in assay [2], in assay [3], in assay [4], in assay [5] and in [6] was greater than 100 µM each time. Moreover, the TGI in assay [7], in assay [8], in assay [9] and in [10] was greater than 100 µM in each case.
Regarding `N#CC1=C(N)Oc2c(sc3c(Br)cccc23)C1c1ccc(Cl)cc1` (stereo not given), the GI50 was 0.464 µM in assay [1]; 1.13 µM in assay [2]; 0.357 µM in assay [3]; 2.88 µM in assay [4]; 0.559 µM in [5]; 0.477 µM in assay [6]. In addition, the GI50 is 0.342 µM in [7], 2.23 µM in assay [8], 2 µM in assay [9] and 0.533 µM in [10]. In addition, the TGI in [1] was determined as 11.6 µM; in assay [2] it was 16.1 µM; in assay [3] it was 1.88 µM; in assay [4] it was 17.6 µM; in assay [5], 2.72 µM; in [6], 16.3 µM. In addition, the TGI turned out to be 2.69 µM in assay [7], 17.4 µM in [8], 7.29 µM in [9] and 3.29 µM in assay [10].

Values taken from PubChem BioAssay (NCI).
